Assay results from patent US20220323406A1, “METHODS AND COMPOSITIONS FOR DIFFERENTIATING STEM CELLS” (Massachusetts Institute of Technology, priority 2019, published 2022).
Counter-ions that a name gives are not always drawn.

What was measured:
[1] = test system: ENR+CD organoids (ISC to Paneth cell differentiation); test: Primary screen: basal (non-stimulated) lysozyme secretion LYZ.NS, 2.5-D 384-well ENR+CD organoid differentiation; format: cell-based, mouse; settings: primary screen; for Z.LYZ.NS: standard z score
Excerpt: (§1) High-throughput screening.

[2] = test system: ENR+CD organoids (ISC to Paneth cell differentiation); test: Primary screen: CCh-stimulated lysozyme secretion LYZ.S, 2.5-D 384-well ENR+CD organoid differentiation; format: cell-based, mouse; settings: primary screen
Excerpt: as §1

ENR+CD organoids = test: Primary screen: ATP (CellTiter-Glo 3D, CTG) cell number/viability, 2.5-D 384-well ENR+CD organoids; settings: primary screen; for Z.CTG: standard z score;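 for all read-outs here: compounds given at plating and again on day 3 over a 6-day differentiation from ENR+CV stem-cell-enriched precursors, ATP measured on day 6, plate median as control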
[3] = dose 0.08 uM, FC vs plate median
[4] = dose 0.40 uM, FC vs plate median
[5] = dose 2.00 uM, FC vs plate median
[6] = dose 10.00 uM, FC vs plate median

Q: Which results are given for C=CCc1cccc(/C=N/NC(=O)CN2CCN(Cc3ccccc3)CC2)c1O [PAC-1]?
A: Z.LYZ.NS ([1]; dose 0.08 uM): 1.365; Z.LYZ.NS ([1]; dose 0.40 uM): 0.457; Z.LYZ.NS ([1]; dose 2.00 uM): 1.094; Z.LYZ.NS ([1]; dose 10.00 uM): 0.596; Dose.FC.LYZ.NS [1, 3]: 0.157 log2 fold change; Dose.FC.LYZ.NS [1, 4]: 0.053 log2 fold change; Dose.FC.LYZ.NS [1, 5]: 0.126 log2 fold change; Dose.FC.LYZ.NS [1, 6]: 0.068 log2 fold change; Dose.FC.LYZ.S [2, 3]: 0.128 log2 fold change; Dose.FC.LYZ.S [2, 4]: 0.059 log2 fold change; Dose.FC.LYZ.S [2, 5]: −0.006 log2 fold change; Dose.FC.LYZ.S [2, 6]: 0.092 log2 fold change; Z.CTG (ENR+CD organoids; dose 0.08 uM): 0.228; Z.CTG (ENR+CD organoids; dose 0.40 uM): 0.270; Z.CTG (ENR+CD organoids; dose 2.00 uM): −0.576; Z.CTG (ENR+CD organoids; dose 10.00 uM): 0.004; Dose.FC.CTG (ENR+CD organoids; [3]): 0.095 log2 fold change; Dose.FC.CTG (ENR+CD organoids; [4]): 0.113 log2 fold change; Dose.FC.CTG (ENR+CD organoids; [5]): −0.241 log2 fold change; Dose.FC.CTG (ENR+CD organoids; [6]): 0.002 log2 fold change

Q: What does the source list for CCOC(=O)[C@H](CCc1ccccc1)N[C@@H](C)C(=O)N1C(=O)N(C)C[C@H]1C(=O)O [Imidapril HCl]?
A: Dose.FC.LYZ.NS (log2 fold change) ([1]; dose 0.08 uM): −0.006; Z.LYZ.NS (standard z score) ([1]; dose 0.08 uM): −0.049; Dose.FC.LYZ.NS (log2 fold change) ([1]; dose 0.40 uM): 0.000; Z.LYZ.NS (standard z score) ([1]; dose 0.40 uM): 0.004; Dose.FC.LYZ.NS (log2 fold change) ([1]; dose 2.00 uM): 0.014; Z.LYZ.NS (standard z score) ([1]; dose 2.00 uM): 0.121; Dose.FC.LYZ.NS (log2 fold change) ([1]; dose 10.00 uM): −0.081; Z.LYZ.NS (standard z score) ([1]; dose 10.00 uM): −0.706; Dose.FC.LYZ.S (log2 fold change) ([2]; dose 0.08 uM): −0.042; Dose.FC.LYZ.S (log2 fold change) ([2]; dose 0.40 uM): 0.109; Dose.FC.LYZ.S (log2 fold change) ([2]; dose 2.00 uM): −0.035; Dose.FC.LYZ.S (log2 fold change) ([2]; dose 10.00 uM): −0.075; Dose.FC.CTG (log2 fold change) (ENR+CD organoids; dose 0.08 uM): −0.333; Dose.FC.CTG (log2 fold change) (ENR+CD organoids; dose 0.40 uM): −0.148; Dose.FC.CTG (log2 fold change) (ENR+CD organoids; dose 2.00 uM): −0.236; Dose.FC.CTG (log2 fold change) (ENR+CD organoids; dose 10.00 uM): −0.227

Q: How did the Z.LYZ.NS ([1]; dose 0.08 uM) turn out when CC[C@@H]1/C=C/C=C/C[C@H](C)[C@H](O)[C@](C)(O)C(=O)[C@H](C)[C@@H](O)[C@H](C)C(=O)[C@H](C)[C@@H](O)[C@H](C)/C=C/C(=O)O[C@H]2[C@@H](C)[C@@H](CC1)O[C@@]1(CC[C@@H](C)[C@@H](C[C@H](C)O)O1)[C@@H]2C [Oligomycin A] was run?
A: The Z.LYZ.NS was −1.778.

Q: And the Z.LYZ.NS ([1]; dose 0.40 uM)?
A: The Z.LYZ.NS was −2.013.

Q: And the Z.LYZ.NS ([1]; dose 2.00 uM)?
A: The Z.LYZ.NS was −1.857.

Q: What about the Z.LYZ.NS ([1]; dose 10.00 uM) of the same compound?
A: Its Z.LYZ.NS is −1.943.

Q: And the Dose.FC.LYZ.NS [1, 3]?
A: The Dose.FC.LYZ.NS was −0.204 log2 fold change.

Q: What about the Dose.FC.LYZ.NS [1, 4] of the same compound?
A: The Dose.FC.LYZ.NS was −0.231 log2 fold change.

Q: What about the Dose.FC.LYZ.NS [1, 5] of the same compound?
A: The Dose.FC.LYZ.NS was −0.213 log2 fold change.

Q: And the Dose.FC.LYZ.NS [1, 6]?
A: The Dose.FC.LYZ.NS was −0.223 log2 fold change.

Q: And the Dose.FC.LYZ.S [2, 3]?
A: Its Dose.FC.LYZ.S is −0.243 log2 fold change.

Q: And the Dose.FC.LYZ.S [2, 4]?
A: The Dose.FC.LYZ.S was −0.274 log2 fold change.

Q: What about the Dose.FC.LYZ.S [2, 5] of the same compound?
A: Its Dose.FC.LYZ.S is −0.269 log2 fold change.

Q: And the Dose.FC.LYZ.S [2, 6]?
A: The Dose.FC.LYZ.S was −0.288 log2 fold change.

Q: What about the Z.CTG (ENR+CD organoids; dose 0.08 uM) of the same compound?
A: The Z.CTG was −1.581.

Q: And the Z.CTG (ENR+CD organoids; dose 0.40 uM)?
A: Its Z.CTG is −1.685.

Q: What about the Z.CTG (ENR+CD organoids; dose 2.00 uM) of the same compound?
A: The Z.CTG was −2.261.

Q: And the Z.CTG (ENR+CD organoids; dose 10.00 uM)?
A: The Z.CTG was −2.972.

Q: What about the Dose.FC.CTG (ENR+CD organoids; [3]) of the same compound?
A: Its Dose.FC.CTG is −0.662 log2 fold change.

Q: What about the Dose.FC.CTG (ENR+CD organoids; [4]) of the same compound?
A: The Dose.FC.CTG was −0.706 log2 fold change.

Q: And the Dose.FC.CTG (ENR+CD organoids; [5])?
A: Its Dose.FC.CTG is −0.946 log2 fold change.

Q: What about the Dose.FC.CTG (ENR+CD organoids; [6]) of the same compound?
A: The Dose.FC.CTG was −1.244 log2 fold change.

Q: CCN(CC)CC(=O)Nc1c(C)cccc1C [Lidocaine] was tested. Which “Dose.FC.LYZ.NS (log2 fold change)” value ([1]; dose 0.08 uM) did it give?
A: The value was 0.106.

Q: And the “Z.LYZ.NS (standard z score)” value ([1]; dose 0.08 uM)?
A: Its value is 0.927.

Q: And the “Dose.FC.LYZ.NS (log2 fold change)” value ([1]; dose 0.40 uM)?
A: The value was 0.017.

Q: What about the “Z.LYZ.NS (standard z score)” value ([1]; dose 0.40 uM) of the same compound?
A: Its value is 0.144.

Q: What about the “Dose.FC.LYZ.NS (log2 fold change)” value ([1]; dose 2.00 uM) of the same compound?
A: Its value is 0.001.

Q: What about the “Z.LYZ.NS (standard z score)” value ([1]; dose 2.00 uM) of the same compound?
A: Its value is 0.008.

Q: And the “Dose.FC.LYZ.NS (log2 fold change)” value ([1]; dose 10.00 uM)?
A: The value was 0.019.

Q: What about the “Z.LYZ.NS (standard z score)” value ([1]; dose 10.00 uM) of the same compound?
A: Its value is 0.167.

Q: What about the “Dose.FC.LYZ.S (log2 fold change)” value ([2]; dose 0.08 uM) of the same compound?
A: Its value is 0.083.

Q: And the “Dose.FC.LYZ.S (log2 fold change)” value ([2]; dose 0.40 uM)?
A: Its value is 0.026.

Q: What about the “Dose.FC.LYZ.S (log2 fold change)” value ([2]; dose 2.00 uM) of the same compound?
A: Its value is −0.038.

Q: And the “Dose.FC.LYZ.S (log2 fold change)” value ([2]; dose 10.00 uM)?
A: The value was −0.009.

Q: What about the “Dose.FC.CTG (log2 fold change)” value (ENR+CD organoids; dose 0.08 uM) of the same compound?
A: Its value is −0.079.

Q: What about the “Dose.FC.CTG (log2 fold change)” value (ENR+CD organoids; dose 0.40 uM) of the same compound?
A: The value was −0.153.

Q: What about the “Dose.FC.CTG (log2 fold change)” value (ENR+CD organoids; dose 2.00 uM) of the same compound?
A: Its value is 0.034.

Q: And the “Dose.FC.CTG (log2 fold change)” value (ENR+CD organoids; dose 10.00 uM)?
A: Its value is −0.256.

Q: Which Dose.FC.LYZ.NS ([1]; dose 0.08 uM) does the source give for O=C1C(=O)N(Cc2ccc(Cl)c(Cl)c2)c2ccccc21 [Apoptosis Activator 2] here?
A: Its Dose.FC.LYZ.NS is 0.149 log2 fold change.

Q: And the “Z.LYZ.NS (standard z score)” value ([1]; dose 0.08 uM)?
A: The value was 1.302.

Q: And the Dose.FC.LYZ.NS ([1]; dose 0.40 uM)?
A: Its Dose.FC.LYZ.NS is 0.033 log2 fold change.

Q: And the “Z.LYZ.NS (standard z score)” value ([1]; dose 0.40 uM)?
A: The value was 0.290.

Q: What about the Dose.FC.LYZ.NS ([1]; dose 2.00 uM) of the same compound?
A: Its Dose.FC.LYZ.NS is −0.006 log2 fold change.

Q: What about the “Z.LYZ.NS (standard z score)” value ([1]; dose 2.00 uM) of the same compound?
A: Its value is −0.049.

Q: And the Dose.FC.LYZ.NS ([1]; dose 10.00 uM)?
A: Its Dose.FC.LYZ.NS is −0.199 log2 fold change.

Q: What about the “Z.LYZ.NS (standard z score)” value ([1]; dose 10.00 uM) of the same compound?
A: Its value is −1.734.

Q: What about the Dose.FC.LYZ.S ([2]; dose 0.08 uM) of the same compound?
A: The Dose.FC.LYZ.S was 0.132 log2 fold change.

Q: And the Dose.FC.LYZ.S ([2]; dose 0.40 uM)?
A: Its Dose.FC.LYZ.S is 0.073 log2 fold change.

Q: What about the Dose.FC.LYZ.S ([2]; dose 2.00 uM) of the same compound?
A: Its Dose.FC.LYZ.S is −0.009 log2 fold change.

Q: And the Dose.FC.LYZ.S ([2]; dose 10.00 uM)?
A: The Dose.FC.LYZ.S was −0.252 log2 fold change.

Q: And the Dose.FC.CTG (ENR+CD organoids; dose 0.08 uM)?
A: The Dose.FC.CTG was 0.304 log2 fold change.

Q: And the “Z.CTG (standard z score)” value (ENR+CD organoids; dose 0.08 uM)?
A: Its value is 0.725.

Q: And the Dose.FC.CTG (ENR+CD organoids; dose 0.40 uM)?
A: The Dose.FC.CTG was 0.262 log2 fold change.

Q: What about the “Z.CTG (standard z score)” value (ENR+CD organoids; dose 0.40 uM) of the same compound?
A: Its value is 0.626.

Q: What about the Dose.FC.CTG (ENR+CD organoids; dose 2.00 uM) of the same compound?
A: Its Dose.FC.CTG is 0.082 log2 fold change.

Q: And the “Z.CTG (standard z score)” value (ENR+CD organoids; dose 2.00 uM)?
A: Its value is 0.195.

Q: What about the Dose.FC.CTG (ENR+CD organoids; dose 10.00 uM) of the same compound?
A: Its Dose.FC.CTG is −0.158 log2 fold change.

Q: And the “Z.CTG (standard z score)” value (ENR+CD organoids; dose 10.00 uM)?
A: Its value is −0.378.
